Tested on: T1, PsMDL2
T1 construct: gene MDL2
Experiment: spectrophotometric mandelonitrile cleavage at […] nm, Lineweaver-Burk
Assay type: biochemical, Prunus sibirica
Details: 0.1 M citrate-phosphate buffer pH 5.0, 25 °C; mandelonitrile 0.05-4.0 mM; purified recombinant enzyme

SMILES: N#CC(O)c1ccccc1 (stereo not shown) [mandelonitrile]
- Km: 220 µM

Reference: paper PMC11191352, “Mandelonitrile lyase MDL2-mediated regulation of seed amygdalin and oil accumulation of Prunus Sibirica” (BMC Plant Biology, 2024)
